From article PMC11514314, “The aquastatin biosynthetic gene cluster encodes a versatile polyketide synthase capable of synthesising heteromeric depsides with diverse alkyl side chains” (Chemical Science, 2024)
Values after ≈ are worked out from the molar mass of the structure shown.

What was measured:
[1] = system: B. subtilis (ATCC 6633); assay: Antibacterial ProTOX bioassay, B. subtilis; assay type: cell-based; settings: Bacillus subtilis, ATCC6633; B. subtilis ATCC 6633, 48 h, 28 °C; read-out: Minimum inhibitory concentration (MIC) B. subtilis
Description: (§1) 12. Bioactivity screening.
(§2) Purified metabolites were dissolved in DMSO to create stock solutions of 10,000 µg/mL. An aliquot from each stock solution was transferred to the first well of Rows B to G on a 96-well microtitre plate and then serially diluted two-fold with DMSO across the 12 wells of the plate to achieve a 2,048-fold concentration gradient. Bioassay medium was added to an aliquot of each diluted solution to achieve a 100-fold dilution in the final bioassay. This […]
(§3) 0.1 µg/mL in 2% DMSO for yeasts. Row A served as a control with no test compound (indicating no inhibition), and Row H was left uninoculated (serving as a control for complete inhibition).
(§4) B. subtilis (ATCC 6633), S. aureus (ATCC 25923) and MRSA (ATCC 33592) were used as indicator species for antibacterial activity, employing the ProTOX bioassay platform. A bacterial suspension (50 mL in a 250 mL flask) was prepared in nutrient media by cultivating it for 24 h at 250 rpm and 28 °C. The suspension was diluted to an absorbance of 0.01 absorbance units per mL, and 10 µL aliquots were added to the wells of a 96-well microtitre plate containing the test compounds dispersed in 190 µL of nutrient broth (Amyl) with 10 µL resazurin (12.5 µg/mL). The plates were incubated at 28 °C for 48 h, during which the positive control wells changed colour from blue to light pink. Tetracycline was employed as a control for B. subtilis, while ampicillin was used for S. aureus and MRSA. MIC endpoints were determined visually. Absorbance was measured using a Multiskan Skyhigh Microplate Spectrophotometer (Thermo Fisher Scientific) at 605 nm.

[2] = system: S. aureus (ATCC 25923); assay: Antibacterial ProTOX bioassay, S. aureus; assay type: cell-based; settings: Staphylococcus aureus, ATCC25923; S. aureus ATCC 25923, 48 h, 28 °C; read-out: Minimum inhibitory concentration (MIC) S. aureus
Description: as §1, §2, §3, §4

[3] = system: MRSA (ATCC 33592); assay: Antibacterial ProTOX bioassay, MRSA; assay type: cell-based, methicillin-resistant S. aureus; settings: Staphylococcus aureus; MRSA ATCC 33592, 48 h, 28 °C; read-out: Minimum inhibitory concentration (MIC) MRSA
Description: as §1, §2, §3, §4

[4] = system: Saccharomyces cerevisiae (ATCC 9763); assay: Antifungal EuTOX bioassay, S. cerevisiae; assay type: cell-based; settings: Saccharomyces cerevisiae, ATCC9763; S. cerevisiae ATCC 9763, 48 h; read-out: Minimum inhibitory concentration (MIC) S. cerevisiae
Description: as §1, §2
(§5) 0.1 µg/mL in 2% DMSO for yeasts. Row A served as a control with no test compound (indicating no inhibition), and Row H was left uninoculated (serving as a control for complete inhibition). […]
(§6) MIC endpoints were determined visually. Absorbance was measured using a Multiskan Skyhigh […]
Saccharomyces cerevisiae (ATCC 9763) was used as indicator species for antifungal activity, employing the EuTOX bioassay platform. A yeast suspension (50 mL in a 250 mL flask) was prepared in 1% malt extract broth by cultivating it for 24 h at 250 rpm and 24 °C. The suspension was diluted to absorbances of 0.03 absorbance units per mL and 30 µL were added to the wells of a 96-well microtitre plate containing the test compounds dispersed in 100 µL of malt extract agar with bromocresol green (50 µg/mL). The plates were incubated at 28 °C for 48 h, during which the positive control wells changed colour from blue to yellow. Blasticidin S HCl was used

[5] = system: NS-1 (ATCC TIB-18) mouse myeloma cells; assay: Cytotoxicity resazurin assay, NS-1 cells; assay type: cell-based; settings: NS1; mouse myeloma NS-1 ATCC TIB-18, 96 h; read-out: IC50 NS-1
Description: as §1, §2, §5, §6, §6
(§7) NS-1 (ATCC TIB-18) mouse myeloma and NFF (ATCC PCS -201) human neonatal foreskin fibroblast cells were each inoculated in 96-well microtitre plates (190 µL) at 50,000 cells/mL in DMEM (Dulbecco's Modified Eagle Medium + 10% fetal bovine serum (FBS) + 1% penicillin/streptomycin (10,000 U/mL / 10,000 µg/mL, Life Technologies Cat. No. 15140122), together with resazurin (250 µg/mL; 10 µL) and incubated in 37 °C (5% CO2) incubator. The plates were incubated for 96 h during which time the positive control wells change colour from a blue to pink colour. The absorbance of each well was measured using Multiskan Skyhigh Microplate Spectrophotometer (Thermofisher Scientific) at 605 nm. Sparsomycin was used as a control. The IC50 values were determined using a sigmoidal dose-response model with variable slope in GraphPad Prism 8.

[6] = system: NFF (ATCC PCS-201) human neonatal foreskin fibroblast cells; assay: Cytotoxicity resazurin assay, NFF cells; assay type: cell-based; settings: Homo sapiens; neonatal foreskin fibroblast NFF, 96 h; read-out: IC50 NFF
Description: as §1, §2, §5, §6, §6, §7

[7] = system: mammalian adenosine triphosphatases; design: method as in PMID 8270486; settings: cited from earlier work
[8] = system: HIV-1 integrase; design: method as in PMID 19952429, PMID 15015729; settings: cited from earlier work
[9] = system: fatty acid synthase II (FAS II); settings: cited from earlier work
[10] = system: methicillin-resistant S. aureus (MRSA); design: method as in PMID 19952429; settings: cited from earlier work
[11] = system: B. subtilis (ATCC 6633); design: method as in Crombie et al.[17]; settings: ref Crombie et al.[17]; cited from earlier work
[12] = system: S. aureus (ATCC 25923); design: method as in Crombie et al.[17]; settings: ref Crombie et al.[17]; cited from earlier work
[13] = system: MRSA (ATCC 33592); design: method as in Crombie et al.[17]; settings: ref Crombie et al.[17]; cited from earlier work
[14] = system: Saccharomyces cerevisiae (ATCC 9763); settings: S. cerevisiae ATCC 9763; ref Crombie et al.[17]; cited from earlier work
[15] = system: NS-1 (ATCC TIB-18) mouse myeloma cells; design: method as in Crombie et al.[17]; settings: mouse myeloma NS-1; ref Crombie et al.[17]; cited from earlier work
[16] = system: NFF (ATCC PCS-201) human neonatal foreskin fibroblast cells; design: method as in Crombie et al.[17]; settings: ref Crombie et al.[17]; cited from earlier work

## CCCCCCCCCCCCCCCc1cc(O[C@@H]2O[C@H](CO)[C@@H](O)[C@H](O)[C@H]2O)cc(O)c1C(=O)Oc1cc(C)c(C(=O)O)c(O)c1 [1a, Aquastatin A]
[1]
  MIC: 1.6 µg/mL (≈ 2.36 µM)
[2]
  MIC: 12.5 µg/mL (≈ 18.5 µM)
[3]
  MIC: 1.6 µg/mL (≈ 2.36 µM)
[4]
  MIC: > 200 µg/mL
[5]
  IC50: > 100 µg/mL
[6]
  IC50: > 100 µg/mL
[7]
  inhibition of mammalian adenosine triphosphatases: inhibitor
[8]
  inhibition of HIV-1 integrase: inhibit
[9]
  inhibition of fatty acid synthase II (FAS II): inhibit
[10]
  antibacterial activity against MRSA: demonstrated antibacterial activity

## CCCCC/C=C\C/C=C\CCCCCCCc1cc(O[C@@H]2O[C@H](CO)[C@H](O)[C@H](O)[C@H]2O)cc(O)c1C(=O)Oc1cc(C)c(C(=O)O)c(O)c1 [2a, Geministatin A]
[11]
  Minimum inhibitory concentration (MIC) B. subtilis: 1.6 µg/mL (≈ 2.28 µM)
[12]
  Minimum inhibitory concentration (MIC) S. aureus: 6.3 µg/mL (≈ 8.99 µM)
[13]
  Minimum inhibitory concentration (MIC) MRSA: 6.3 µg/mL (≈ 8.99 µM)
[14]
  Minimum inhibitory concentration (MIC) S. cerevisiae: >200 µg/mL
[15]
  IC50 NS-1: >50 µM
[16]
  IC50 NFF: >100 µM

## CCCCC/C=C\C/C=C\CCCCCCCc1cc(O)cc(O)c1C(=O)Oc1cc(C)c(C(=O)O)c(O)c1 [2b, Geministatin B]
[11]
  Minimum inhibitory concentration (MIC) B. subtilis: 0.4 µg/mL (≈ 0.743 µM)
[12]
  Minimum inhibitory concentration (MIC) S. aureus: 3.1 µg/mL (≈ 5.75 µM)
[13]
  Minimum inhibitory concentration (MIC) MRSA: 1.6 µg/mL (≈ 2.97 µM)
[14]
  Minimum inhibitory concentration (MIC) S. cerevisiae: >200 µg/mL
[15]
  IC50 NS-1: >50 µM
[16]
  IC50 NFF: >100 µM
